Measurements: patent US9212168B2 (priority 2011, dated 2015)

Legend:
[1] = tested on: HCV genotype 1a replicon; assay: HCV genotype 1a replicon assay (NS3 protease activity readout); assay type: cell-based, hepatitis C virus; settings: for Genotype 1a: HCV genotype 1a replicon; for EC50: Hepatitis C virus, read-out: Genotype 1a, HCV genotype 1a replicon
Outline: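 Genotype 1a subgenomic replicon cells (APC89, Huh7.5) were treated with compound dose-responses in G418-free medium, 0.5% DMSO final, for 48 or 72 hours at 37° C. Lysate NS3/4a protease activity measured with 15 μM FRET substrate, 20 min at 37° C (ex 340/em 509 nm); EC50 by 4-parameter fit.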

[2] = molecular target: HCV genotype 1b replicon; assay: HCV genotype 1b replicon assay (Renilla luciferase readout); assay type: cell-based, hepatitis C virus; settings: for Genotype 1b: HCV genotype 1b replicon; for EC50: Hepatitis C virus, read-out: Genotype 1b
Outline: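 Huh7-derived APC144 subgenomic replicon cells carrying Renilla luciferase–NS3-NS5B, seeded 10,000/well without G418, then treated with compound dose-responses for 48 h at 37 °C (0.5% DMSO final). Luciferase signal fitted by 4-parameter model to EC50, reported as pEC50.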

Compound: COC(=O)N[C@H](C(=O)N1C[C@@H](O)C[C@H]1c1nc(-c2ccc(-c3cc(F)c(NC(=O)c4ccc(N5CCN(C(=O)C(C)(C)CO)C[C@H]5C)nc4)cc3OC(F)(F)F)cc2)c[nH]1)C(C)C [Example 26-7]
- Genotype 1a [1]: C (C represents pEC50 between and 9 and about 10, (EC50 between 1 nM and 0.1 nM))
- Genotype 1b [2]: D (D represents pEC50>10 (EC50<0.1 nM))

Compound: CNC(=O)N1CCC[C@@H]1C(=O)N1C[C@@H](C)N(c2ccc(NC(=O)c3ccc(-c4ccc(-c5c[nH]c([C@@H]6C[C@H](C)CN6C(=O)[C@@H](NC(=O)OC)C(C)C)n5)cc4)c(OC(F)(F)F)c3)cn2)C[C@@H]1C [Example 4-19]
- Genotype 1a [1]: D (D represents pEC50>10 (EC50<0.1 nM))
- Genotype 1b [2]: D (D represents pEC50>10 (EC50<0.1 nM))

Compound: COC(=O)NC(C(=O)N1C[C@@H](C)C[C@H]1c1nc(-c2ccc(-c3ccc(C(=O)Nc4ccc(N5CCN(C(=O)C(C)(C)C)C[C@H]5C)nc4)c(F)c3OC(F)(F)F)cc2)c[nH]1)C1CCOCC1 (some centres unmarked) [Example 25-2]
- EC50 [1]: < 0.1 nM
- EC50 [2]: < 0.1 nM

Compound: COC[C@H]1CN(c2ccc(C(=O)Nc3cc(OC(F)(F)F)c(-c4ccc(-c5c[nH]c([C@@H]6C[C@H](C)CN6C(=O)[C@@H](NC(=O)OC)C6CCOCC6)n5)cc4)cc3Cl)cn2)CCN1C(=O)C(C)(C)C [Example 20-7]
- Genotype 1a [1]: D (D represents pEC50>10 (EC50<0.1 nM))
- Genotype 1b [2]: D (D represents pEC50>10 (EC50<0.1 nM))

Compound: COC(=O)N[C@H](C(=O)N1[C@@H](C)CC[C@H]1c1nc(-c2ccc(-c3cc(Cl)c(NC(=O)c4ccc(N5CCN(C(=O)C(C)(C)C)C[C@H]5C)nc4)cc3C(F)(F)F)cc2)c[nH]1)C(C)C [Example 17-2]
- Genotype 1a [1]: D (D represents pEC50>10 (EC50<0.1 nM))
- Genotype 1b [2]: D (D represents pEC50>10 (EC50<0.1 nM))

Compound: COC(=O)N[C@H](C(=O)N1C[C@@H](C)C[C@H]1c1nc(-c2ccc(-c3cc(Cl)c(NC(=O)c4ccc(N5C[C@H](C)N(C(=O)[C@H]6CC6(C)C)C[C@H]5C)nc4)cc3OC(F)(F)F)cc2)c[nH]1)C(C)C [Example 1-20]
- Genotype 1a [1]: D (D represents pEC50>10 (EC50<0.1 nM))
- Genotype 1b [2]: D (D represents pEC50>10 (EC50<0.1 nM))

Compound: COC(=O)N[C@H](C(=O)N1C[C@@H](C)C[C@H]1c1nc(-c2ccc(-c3cc(Cl)c(NC(=O)c4ccc(N5C[C@H](C)N(C(=O)C6CC6)C[C@H]5C)nc4)cc3OC(F)(F)F)cc2)c[nH]1)C(C)C [Example 1-43]
- Genotype 1a [1]: D (D represents pEC50>10 (EC50<0.1 nM))
- Genotype 1b [2]: D (D represents pEC50>10 (EC50<0.1 nM))

Compound: CNC(=O)N1C[C@@H](C)N(c2ccc(NC(=O)c3ccc(-c4ccc(-c5nc([C@@H]6C[C@H](C)CN6C(=O)[C@@H](NC(=O)OC)C(C)C)[nH]c5Cl)cc4)c(OC(F)(F)F)c3)cn2)C[C@@H]1C [Example 4-12]
- Genotype 1a [1]: D (D represents pEC50>10 (EC50<0.1 nM))
- Genotype 1b [2]: D (D represents pEC50>10 (EC50<0.1 nM))

Compound: CNC(=O)N1CCN(c2ccc(C(=O)Nc3cc(C(F)(F)F)c(-c4ccc(-c5c[nH]c([C@@H]6C[C@H](C)CN6C(=O)[C@@H](NC(=O)OC)C(C)C)n5)cc4)cc3F)cn2)[C@H](C)C1 [Example 1-9]
- Genotype 1a [1]: D (D represents pEC50>10 (EC50<0.1 nM))
- Genotype 1b [2]: D (D represents pEC50>10 (EC50<0.1 nM))

Compound: COC[C@H]1CN(c2ccc(NC(=O)c3cc(OC(F)(F)F)c(-c4ccc(-c5c[nH]c([C@@H]6C[C@H](C)CN6C(=O)[C@@H](NC(=O)OC)C6CCOCC6)n5)cc4)cc3Cl)cn2)CCN1C(=O)C(C)(C)C [24-4]
- Genotype 1a [1]: C (C represents pEC50 between and 9 and about 10, (EC50 between 1 nM and 0.1 nM))
- Genotype 1b [2]: D (D represents pEC50>10 (EC50<0.1 nM))

Compound: COC(=O)N[C@H](C(=O)N1C[C@@H](C)C[C@H]1c1nc(-c2ccc(-c3cc(Cl)c(NC(=O)c4ccc(N5C[C@H](C)N(C(=O)c6c[nH]cn6)C[C@H]5C)nc4)cc3C(F)(F)F)cc2)c[nH]1)C(C)C [Example 3, [(S)-1-((2S,4S)-2-{4-[5′-Chloro-4′-({6-[(2R,5S)-4-(1H-imidazole-4-carbonyl)-2,5-dimethyl-piperazin-1-yl]-pyridine-3-carbonyl}-amino)-2′-trifluoromethyl-biphenyl-4-yl]-1H-imidazol-2-yl}-4-methyl-pyrrolidine-1-carbonyl)-2-methyl-propyl]-carbamic acid methyl ester]
- EC50 [1]: < 0.1 nM
- EC50 [2]: < 0.1 nM

Compound: COC(=O)N[C@H](C(=O)N1C[C@@H](C)C[C@H]1c1nc(-c2ccc(-c3cc(Cl)c(NC(=O)c4ccc(N5CCN(C(=O)C(C)(C)CO)C[C@H]5C)nc4)cc3OC(F)(F)F)cc2)c[nH]1)C(C)(C)O [Example 13-16]
- EC50 [1]: < 0.1 nM
- EC50 [2]: < 0.1 nM

Compound: COC(=O)N[C@H](C(=O)N1C[C@@H](OC)C[C@H]1c1nc(-c2ccc(-c3cc(Cl)c(NC(=O)c4ccc(N5CCN(C(=O)C(C)(C)C)C[C@H]5C)nc4)cc3OC(F)(F)F)cc2)c[nH]1)C(C)(C)O [Example 16-1]
- Genotype 1a [1]: D (D represents pEC50>10 (EC50<0.1 nM))
- Genotype 1b [2]: D (D represents pEC50>10 (EC50<0.1 nM))

Compound: COC(=O)NC(C(=O)N1C[C@@H](C)C[C@H]1c1nc(-c2ccc(-c3cc(Cl)c(NC(=O)c4ccc(N5CCN(C(=O)C(C)(C)C)C[C@H]5C)nc4)cc3OC(F)(F)F)cc2)c[nH]1)C1CCCOC1 (some centres unmarked) [Example 13-38]
- EC50 [1]: < 0.1 nM
- EC50 [2]: < 0.1 nM

Compound: CNC(=O)N1C[C@@H](C)N(c2ccc(C(=O)Nc3cc(OC(F)(F)F)c(-c4ccc(-c5c[nH]c([C@@H]6C[C@H](C)CN6C(=O)[C@@H](NC(=O)OC)C(C)C)n5)cc4)cc3F)cn2)C[C@@H]1C [Example 1-16]
- Genotype 1a [1]: D (D represents pEC50>10 (EC50<0.1 nM))
- Genotype 1b [2]: D (D represents pEC50>10 (EC50<0.1 nM))

Compound: CNC(=O)N1CCN(c2ccc(C(=O)Nc3cc(C(F)(F)F)c(-c4ccc(-c5c[nH]c([C@@H]6C[C@H](C)CN6C(=O)[C@@H](NC(=O)OC)C(C)C)n5)cc4)cc3Cl)cn2)[C@H](C)C1 [Example 1-30]
- Genotype 1a [1]: D (D represents pEC50>10 (EC50<0.1 nM))
- Genotype 1b [2]: D (D represents pEC50>10 (EC50<0.1 nM))

Compound: COC(=O)N[C@H](C(=O)N1C[C@@H](C)C[C@H]1c1nc(-c2ccc(-c3cc(Cl)c(NC(=O)c4ccc(N5CCN(C(=O)C(C)(C)C)C[C@H]5C)nc4)cc3OC(F)(F)F)cc2)c[nH]1)C1C[C@@H](C)O[C@@H](C)C1 (some centres unmarked) [Example 13-42]
- EC50 [1]: < 0.1 nM
- EC50 [2]: < 0.1 nM

Compound: CNC(=O)N1CCN(c2ccc(C(=O)Nc3cc(OC(F)(F)F)c(-c4ccc(-c5c[nH]c([C@@H]6C[C@H](C)CN6C(=O)[C@@H](NC(=O)OC)C(C)C)n5)cc4)cc3F)cn2)[C@H](C)C1 [Example 1-1]
- Genotype 1a [1]: D (D represents pEC50>10 (EC50<0.1 nM))
- Genotype 1b [2]: D (D represents pEC50>10 (EC50<0.1 nM))

Compound: COC(=O)N[C@H](C(=O)N1C[C@@H](C)C[C@H]1c1nc(-c2ccc(-c3cc(Cl)c(NC(=O)c4ccc(N5CCN(C(=O)C(C)(C)F)C[C@H]5C)nc4)cc3OC(F)(F)F)cc2)c[nH]1)C(C)C [Example 1-96]
- Genotype 1a [1]: D (D represents pEC50>10 (EC50<0.1 nM))
- Genotype 1b [2]: D (D represents pEC50>10 (EC50<0.1 nM))

Compound: COC(=O)N[C@H](C(=O)N1C[C@@H](C)C[C@H]1c1nc(-c2ccc(-c3ccc(C(=O)Nc4ccc(N5C[C@H](C)N(C(=O)C6CC6C)C[C@H]5C)nc4)cc3OC(F)(F)F)cc2)c[nH]1)C(C)C (some centres unmarked) [Example 4-17]
- Genotype 1a [1]: C (C represents pEC50 between and 9 and about 10, (EC50 between 1 nM and 0.1 nM))
- Genotype 1b [2]: D (D represents pEC50>10 (EC50<0.1 nM))

Compound: COC(=O)N[C@H](C(=O)N1C[C@@H](C)C[C@H]1c1nc(-c2ccc(-c3ccc(C(=O)Nc4ccc(N5CCN(C(=O)[C@H]6CC6(C)C)C[C@H]5C)nc4)cc3)cc2)c[nH]1)C(C)C [Example 4-1]
- Genotype 1a [1]: D (D represents pEC50>10 (EC50<0.1 nM))
- Genotype 1b [2]: D (D represents pEC50>10 (EC50<0.1 nM))

Compound: COC(=O)NC(C(=O)N1CC(C)CC1c1nc(-c2ccc(-c3cc(F)c(NC(=O)c4ccc(N5CCN(C(=O)C6CC6(F)F)CC5C)nc4)cc3C(F)(F)F)cc2)c[nH]1)C(C)C (mixture of isomers) [Example 1-53]
- Genotype 1a [1]: D (D represents pEC50>10 (EC50<0.1 nM))
- Genotype 1b [2]: D (D represents pEC50>10 (EC50<0.1 nM))

Compound: COC(=O)N[C@H](C(=O)N1C[C@@H](C(N)=O)C[C@H]1c1nc(-c2ccc(-c3cc(Cl)c(NC(=O)c4ccc(N5CCN(C(=O)C(C)(C)CO)C[C@H]5C)nc4)cc3OC(F)(F)F)cc2)c[nH]1)C(C)C [Example 15-3]
- EC50 [1]: < 0.1 nM
- EC50 [2]: < 0.1 nM

Compound: COC(=O)N[C@H](C(=O)N1C[C@@H](OC)C[C@H]1c1nc(-c2ccc(-c3cc(Cl)c(NC(=O)c4ccc(N5CCN(C(=O)C(C)(C)CO)C[C@H]5C)nc4)cc3OC(F)(F)F)cc2)c(CO)[nH]1)C1CCOCC1 [Example 28-16]
- Genotype 1a [1]: D (D represents pEC50>10 (EC50<0.1 nM))
- Genotype 1b [2]: D (D represents pEC50>10 (EC50<0.1 nM))

Compound: COC(=O)N[C@H](C(=O)N1C[C@@H](C)C[C@H]1c1nc(-c2ccc(-c3ccc(NC(=O)c4ccc(N5CCN(C(=O)C(C)(C)C)C[C@H]5C)nc4)cc3OC(F)(F)F)cc2)c[nH]1)C(C)C [Example 1-75]
- Genotype 1a [1]: D (D represents pEC50>10 (EC50<0.1 nM))
- Genotype 1b [2]: D (D represents pEC50>10 (EC50<0.1 nM))
